Columns and labels:
5-lipoxygenase = molecular target: T1, 5-lipoxygenase (Rattus norvegicus, UniProt P12527); assay: Inhibition of 5-lipoxygenase (5-HETE production in RBL-1 cells); format: cell-based; conditions: for inhibition at 1 µM: 10^-6 M; for inhibition at 0.1 µM: 10^-7 M; for inhibition at 0.01 µM: 10^-8 M
T1 construct: endogenous in cells; host or cells: RBL-1 (rat basophilic leukemia cells)
T1 sequence (P12527 1-673): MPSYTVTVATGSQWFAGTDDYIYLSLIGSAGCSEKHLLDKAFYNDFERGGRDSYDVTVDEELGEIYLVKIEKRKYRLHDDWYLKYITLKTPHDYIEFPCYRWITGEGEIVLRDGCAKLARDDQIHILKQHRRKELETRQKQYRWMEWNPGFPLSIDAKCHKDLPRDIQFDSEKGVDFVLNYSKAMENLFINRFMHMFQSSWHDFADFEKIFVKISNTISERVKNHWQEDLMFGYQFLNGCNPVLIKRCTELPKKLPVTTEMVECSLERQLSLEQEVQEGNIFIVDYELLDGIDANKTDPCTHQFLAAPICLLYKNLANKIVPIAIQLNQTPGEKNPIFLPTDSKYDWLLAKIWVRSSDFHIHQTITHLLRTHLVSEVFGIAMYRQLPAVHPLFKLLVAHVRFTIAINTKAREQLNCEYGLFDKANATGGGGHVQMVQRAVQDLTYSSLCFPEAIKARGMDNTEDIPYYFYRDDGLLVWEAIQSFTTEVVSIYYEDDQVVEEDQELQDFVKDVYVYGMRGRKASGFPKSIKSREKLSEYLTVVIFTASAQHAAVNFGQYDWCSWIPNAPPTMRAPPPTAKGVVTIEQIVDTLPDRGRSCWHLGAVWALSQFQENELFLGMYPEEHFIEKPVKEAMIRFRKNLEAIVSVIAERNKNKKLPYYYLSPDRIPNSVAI
Procedure: 10^7 RBL-1 cells (rat basophilic leukemia cells) were suspended in 0.5 ml of MCM (mast cell medium). […] Then 4 ml of ethanol was added, and the mixture was well shaken and kept at room temperature for 10 min.
The mixture was centrifuged for 10 min. (2000 rpm), and the supernatant was separated. The supernatant obtained was concentrated to dryness under reduced pressure. To the residue 0.5 ml of 60 v/v % aqueous methanol was added. One hundred μl of this solution was subjected to high performance liquid chromatography for quantitative analysis of 5-HETE (5-hydroxyeicosatetraenoic acid). The amount of 5-HETE was determined by measurement of the absorbance at 237 nm with a UV absorption monitor.
The inhibitory effect (IE) of production of 5-HETE is expressed by (1-b/a)×100, wherein a is the peak height or the area corrected with the peak due to the internal standard in the absence of the compound (I) or a pharmaceutically acceptable salt thereof, and b is the peak height or peak area corrected with the peak due to the internal standard in the presence of the compound (I) or a pharmaceutically acceptable salt thereof.

[1] = tested on: generation of HHT in rat platelets; assay: Inhibitory effect on the generation of 12-hydroxyheptadeca-5,8,10-trienoic acid (HHT) in rat platelets; format: cell-based; conditions: rat platelet rich plasma; for inhibition at 100 µM: 10^-4 M; for inhibition at 10 µM: 10^-5 M
Procedure: Blood was collected in 3.2 v/v % sodium citrate (0.8 ml for 7.2 ml of blood) from the abdominal aorta of male Wister rats (Jcl, 12 to 15 weeks) anesthesized with pentobarbital. Platelet rich plasma (PRP) was obtained by centrifuging the blood at 800 rpm for 10 min at room temperature. Platelet poor plasma (PPP) was prepared by centrifuging the remaining blood at 3,000 rpm for 10 min. The platelet concentration of PRP was adjusted to 1,000,000/μl with PPP. […]
The reaction was stopped by adding 100 ml of ethanol and the mixture was allowed to stand for 10 min. at room temperature. The reaction mixture was centrifuged at 2,000 rpm for 10 min. and the supernatant obtained was evaporated. To the concentrate, 0.2 ml of 60 v/v % aqueous ethanol was added.
100 μl of this solution was subjected to high performance liquid chromatography for quantitative analysis of HHT. The amount of HHT was determined by measurement of absorbance at 237 nm with a UV absorption monitor.
The inhibitory effect (IE) on the generation of HHT is expressed by (1-b/a)×100, wherein a is the peak height or the peak area corrected with the peak due to the internal standard in the absence of the compound (I) or a pharmaceutically acceptable salt thereof, and b is the peak height or the peak area corrected with the peak due to the internal standard in the compound (I) or a pharmaceutically acceptable salt thereof.

[2] = tested on: lipid peroxide production in rat brain homogenates; assay: Inhibitory action on lipid peroxide production in rat brain homogenates; format: biochemical; conditions: 5 v/v % rat brain homogenate, pH 7.4, 1 hour at 37° C.; read-out: Inhibition (IC50) of lipid peroxide production
Procedure: The male SD rat (12 weeks) brain tissue was extracted under anesthesia after depletion. The extracted brain tissue was used as 5 v/v % homogenate in phosphate buffer (pH 7.4). After incubation of the homogenate for 1 hour at 37° C., the peroxide produced was determined by the thiobarbituric acid method according to the method described in Analytical Biochemistry, 95, 551 (1979).
Before incubation, test compounds were added in 5 v/v % homogenate so that their final concentration becomes 10^-5 M. […]

SMILES	inhibition at 1 µM (5-lipoxygenase)	inhibition at 0.1 µM (5-lipoxygenase)	inhibition at 0.01 µM (5-lipoxygenase)	inhibition at 100 µM [1]	inhibition at 10 µM [1]	IC50 [2]
Cc1c(C)c2c(c(C)c1O)C(c1cccnc1)C(C)(C)O2 (stereo not drawn) [Example 1, 5-hydroxy-2,2,4,6,7-pentamethyl-3-(3-pyridyl)-2,3-dihydrobenzofuran]	89%	57%	16%	76%	47%	0.22 µM
Cc1c(C)c2c(c(C)c1O)C(c1cccnc1)C1(CCCC1)O2 (stereo not drawn) [Example 2]	91%	70%	18%	79%	52%	0.75 µM
Cc1c(C)c2c(c(C)c1O)C(c1cccnc1)C1(CCCCC1)O2 (stereo not drawn) [Example 3, 5-hydroxy-4,6,7-trimethyl-3-(3-pyridyl)-3H-benzofuran-2-spirocyclohexane]	91%	64%	20%	40%	7%	0.15 µM
Cc1c(C)c2c(c(C)c1O)C(c1ccccn1)C(C)(C)O2 (stereo not drawn) [Example 4]	98%	18%	0%	29%	9%	0.25 µM
Cc1c2c(c3ccccc3c1O)OC(C)(C)C2c1cccnc1 (stereo not drawn) [Example 5]	99%	22%	0%	84%	54%	0.12 µM
Cc1c(C)c2c(c(C)c1O)C(c1ccccc1)C(C)(C)O2 (stereo not drawn) [Example 6, 5-hydroxy-2,2,4,6,7-pentamethyl-3-phenyl-2,3-dihydrobenzofuran]	92%	18%	0%	49%	7%	0.13 µM

Reference: patent US4857516A, “Coumaran derivatives and their pharmaceutical use” (Takeda Chemical Industries, Ltd., priority 1986, dated 1989)
